Experiments:
[1] = system: Neonatal Human Epidermal Melanocytes (NHEM) and HaCat; experiment: Reduction in melanin content assay (MCA) in melanocyte/keratinocyte co-culture; conditions: 72 hours treatment, relative to vehicle control
Xanthomonas oryzae = conditions: dilute solution sprayed on rice inoculated with Xanthomonas oryzae; cited from earlier work

| SMILES | Reduction in melanin content ([1]; 0.00014 wt % active (Example A)) [%] | Decrease of infection on the leaves (Xanthomonas oryzae) | Reduction in melanin content ([1]; 0.0005 wt % active (Example 1)) [%] | Reduction in melanin content ([1]; 0.00075 wt % active (Example 2)) [%] | Reduction in melanin content ([1]; 0.001 wt % active (Example 3)) [%] |
| --- | --- | --- | --- | --- | --- |
| CCc1ccc(O)cc1O [Ethyl resorcinol, reference compound] | 21.5 |  |  |  |  |
| C=C1C(=O)OC2C[C@]3(C)C(CC12)C(=C)C(O)C[C@H]3O (some centres unmarked) [Granilin] |  | about 75% | 30.4 | 47.6 | 52.3 |
